Patent US20090253206A1, “NUCLEAR TRANSPORT AGENT AND METHOD FOR PRODUCING SAID AGENT” (LONZA COLOGNE AG, priority 2006, published 2009)
Ends that are not written are not given here.

How the values were obtained:
[1] = tested on: pmaxGFP plasmid DNA; test: Electrophoretic mobility shift assay in agarose gel, NLS peptides in water (FIG. 1); type: binding; settings: 1 μg DNA with μg amounts of peptide in water, 20 μl, 20° C., 30 min; 0.6% agarose gel
Method: 1 μg DNA was incubated with peptide (μg amounts as indicated in the figure) in water in a total volume of 20 μl at 20° C. for 30 min. After that loading dye was added, each sample filled into a slot of a 0.6% agarose gel (Tris-acetate/EDTA as running buffer, pH 8.5). Electrophoresis was run at 90V for 120 min. P=1 μg plasmid DNA without peptide. M=kb marker (bands indicating 1.5, 2, 3, 4, 5, and 6 kb). The gel was stained with Ethidiumbromide for 10 min, then documented using a BioRad Gel-Doc System.
DNA interacting unspecifically with peptides through positively charged amino acids may mask positively charged nuclear localisation sequences (NLS) and interfere with their function in nuclear transport.
Peptides were synthesized by F-moc-Chemistry and HPLC-purified to 95% purity. The carboxyl-group at the C-terminus was amidated and the N-terminal amino-group was actylated, in order to eliminate additional charges.
DNA was pmaxGFP plasmid DNA ([…] size).
(§1) The NLS on the NLS-1 peptide may be masked and altered in its capacity to mediate nuclear translocation, whereas all other peptides are still functioning in nuclear import.

[2] = tested on: pmaxGFP plasmid DNA; test: Electrophoretic mobility shift assay in agarose gel, peptides with different positive net charges (FIG. 2); type: binding; settings: 1 μg DNA with 1 nM peptide in water, 20 μl, 20° C., 30 min; 0.6% agarose gel
Method: 1 μg DNA was incubated with 1 nM peptide in water in a total volume of 20 μl at 20° C. for 30 min. After that loading dye was added, each sample filled into a slot of a 0.6% agarose gel (Tris-acetate/EDTA as running buffer, pH 8.5). Electrophoresis was run at 90V for 120 min. P=1 μg plasmid DNA without peptide. M=kb marker (bands indicating 1.5, 2, 3, 4, 5, and 6 kb). The gel was stained with Ethidiumbromide for 10 min, then documented using a BioRad Gel-Doc System.
DNA interacting unspecifically with peptides through positively charged amino acids may mask positively charged nuclear localisation sequences (NLS) and interfere with their function in nuclear transport. […] Peptides were designed with different positive net charges, 5+, 4+, 3+, 2+, 0±, by exchanging neutral amino acids for acidic ones or vice versa acidic for neutral amino acids
(§2) Peptides were synthesized by F-moc-chemistry and HPLC-purified to 95% purity. The carboxyl-group at the C-terminus was amidated and the N-terminal amino-group was actylated, in order to eliminate additional charges.
as §1

[3] = tested on: pmaxGFP plasmid DNA; test: DNA-band shift of plasmid DNA with positively charged peptides and peptide-NLS in Opti-MEM (FIGS. 3 and 4); type: binding; settings: 90 ng or 135 ng DNA, various peptide amounts in Opti-MEM, 20° C., 30 min; comparison between peptides
Method: Plasmid DNA (90 ng per sample) was incubated with different amounts (numbers above each lane indicate pico-mole amounts per sample) of positively charged peptides (see list of peptide sequences for details) in Opti-MEM as described below.
Several positively charged peptides, as well as positively charged peptides bearing a positively charged NLS (NLS1) or a neutral NLS (NLS2) were tested for their ability to complex DNA and form higher aggregates, visible as shifts of the electrophoretic mobility of the DNA.
as §2, with “charges. U represents the spacer molecule 8-amino-3,6-dioxaoctanoic acid (UUU (U3) represents a trimer of U):” for “charges.”
Lyophilized peptides, provided by supplier, were dissolved in distilled water to 0.1 mM. DNA was pmaxGFP plasmid DNA, 3.7 kb size (amaxa AG, Cologne), dissolved in water at 1 mg/ml. The plasmid encodes a green fluorescent protein (GFP).
For DNA-band shift experiments 90 ng or 135 ng DNA, resp., were incubated with various amounts of peptide (indicated in the figure) in Opti-MEM (Invitrogen) in a total volume of 60 μl or 90 μl, resp., at 20° C. for 30 min. Loading dye was added before each sample was filled into a slot of a 0.6% agarose gel (40 mM Tris-acetate/1 mM EDTA as running buffer, pH 8.0). Electrophoresis was run at 90V for 120 min.
P=90 ng plasmid DNA without peptide M=kb marker (bands indicating 0.5, 1, 1.5, 2, 3, 4, 5, 6, 8, and 10 kb).
The gel was stained with Ethidiumbromide for 10 min, then documented using a BioRad Gel-Doc System.
With increasing amounts of peptide the DNA band is gradually shifting, indicating decreased electrophoretic mobility due to higher molecular size of the peptide-DNA complexes and due to decrease in negative charge of the DNA compensated by the positively charged peptides. As the concentration of the peptide further increases, the molecular weight of the complexes increases as well. The complexes are therefore hardly moving into the gel, the bands appear right below the loading slot. The plasmid DNA is represented by two bands in the gel, one dominant band of super-coiled slightly above 2 kb, and a weaker band between 3 and 4 kb showing the relaxed plasmid DNA.

[4] = tested on: Human Umbilical Vein Endothelial Cells (HUVEC); test: Transfection of HUVEC with ExGen500 and peptide-NLS, GFP expression by flow cytometry; type: cell-based; settings: for transfection efficiency (percentage of GFP-positive cells of all viable cells): ExGen500, 1.5 μg DNA, 24 hours post transfection; for change of transfection efficiency (in words): FIG. 5 and FIG. 6
Method: (§3) Cells were grown and seeded as described below. FACS data of duplicate samples are shown.
Cells were grown and seeded as described below. Mean values of the duplicate samples are shown.
(§4) Human Umbilical Vein Endothelial Cells (HUVEC, from LONZA) were grown in EGM-2 medium (Bullet Kit, LONZA) and seeded in 12-well plates one day before transfection at a density of 1.2×10^5 cells per well in 1 ml EGM-2 medium (LONZA).
(§5) Transfection reagents were ExGen500 (Fermentas) and HiFect (amaxa) used according to manufacturer's protocols. Plasmid-DNA (1.5 μg), coding for green fluorescent protein (pmaxGFP, amaxa) was complexed with peptides (amounts as indicated in the figures) for 30 min at room temperature prior to mixing with transfection reagent.
For transfection with ExGen500 complex formation was done in 30 μl 150 mM NaCl solution. These preformed DNA-peptide complexes were added to transfection reagent (diluted in Opti-MEM or 150 mM NaCl according to manufacturer's protocols) and incubated.
(§6) Complete transfection samples were added to HUVEC in Opti-MEM, incubated for 1 h at 37° C./5% CO2 in a humidified incubator. Medium was aspirated, cells washed with PBS twice. Fresh medium was added, and cells were incubated for another 23 h, then prepared for flow cytometry. To differentiated PC12 transfection samples were added in Opti-MEM, incubated for 1 h. After supernatant was removed fresh medium was added. Expression of maxGFP was measured by flow cytometry and expressed as transfection efficiency (percentage of GFP-positive cells of all viable cells) and X-mean (mean fluorescent intensity of the cells) 24 h after transfection (HUVEC), 48 h or 72 h after transfection in the case of PC12.

[5] = tested on: neuronally differentiated PC12 cells; test: Transfection of neuronally differentiated PC12 cells with HiFect and peptide-NLS, GFP expression by flow cytometry; type: cell-based; settings: differentiated PC12, HiFect, 1 μg DNA
Method: (§7) Cells were grown and seeded as described below. FACS data of mean values of the duplicate samples are shown.
PC12 cells (from ATCC) were grown in F-12K medium (ATCC) with 15% horse serum (Gibco) and 2.5% foetal calf serum (ATCC). Cells were seeded in 12-well plates; 5×10^4 coated with collagen (from rat tail (SIGMA), 60 μg per well, dissolved in 0.005% acetic acid/30% ethanol at 60 μg per ml). After one day of culture nerve growth factor (NGF-β from SIGMA, 100 ng/ml final concentration) was added to differentiate neuronal cells. 7 days after start of differentiation, cells were used for transfection.
Transfection reagents were ExGen500 (Fermentas) and HiFect (amaxa) used according to manufacturer's protocols. […]
(§8) For transfection with HiFect complex formation of DNA and peptide was done in 250 μl Opti-MEM (Invitrogen) for each sample.
as §6, with “To differentiated PC12 transfection samples were added in Opti-MEM, incubated for 1 h. After supernatant was removed fresh medium was added.” left out, “PC12. […]” for “PC12.”

[6] = tested on: Human Umbilical Vein Endothelial Cells (HUVEC); test: Transfection of HUVEC with HiFect and peptide-NLS, GFP expression by flow cytometry; type: cell-based; settings: HiFect, 1.5 μg DNA, 24 hours post transfection, FIG. 8 and FIG. 9
Method: as §3, §7, §4, §5, §8
as §6, with “Fresh medium was added, and cells were incubated for another 23 h, then prepared for flow cytometry. To differentiated PC12 transfection samples were added in Opti-MEM, incubated for 1 h. After supernatant was removed fresh medium was added.” left out

With “GSGSPKKKRKVGSG (Ac-GSGSPKKKRKVGSG-NH2) [NLS-1, SV40 large T-antigen core NLS with glycine and serine flanks]” the “alteration of the electrophoretic mobility of DNA (binding to DNA, aggregates)” value [1] was “does bind to DNA and forms aggregates” and the “alteration of the electrophoretic mobility of DNA (binding to DNA, aggregates)” value [2] was “do bind to DNA and form aggregates”.

For “KKKKK KKKKK KKKKK K-UUU (Ac-KKKKKKKKKKKKKKKK; not fully specified (C-terminus); printed as KKKKK KKKKK KKKKK K-UUU) [K16U3]”, the “peptide amount needed to form a high molecular weight complex / total band shift” value [3] was “form a high molecular weight complex (i.e. no migration into the gel) at the same concentrations”, the “transfection efficiency (percentage of GFP-positive cells of all viable cells)” value ([4]; FIG. 5) was 49.5% and the “change of transfection efficiency (in words)” value (“change” below) ([4]; ExGen500, 24 h) was “decreasing transfection efficiency”.

“KKKKK KKKKK KKKKK K-UUU-EEDTP PKKKR KVED [K16U3-NLS2]” was tested, and the “transfection efficiency (percentage of GFP-positive cells of all viable cells)” value ([4]; FIG. 5) was 69%, the “increase of transfection efficiency, factor” value ([4]; ExGen500, 24 h, compared to peptide K16U3 without NLS, FIG. 5) was 1.4 and the “maximum increase in transfection efficiency, factor” value ([5]; 72 hours post transfection, compared to HiFect without peptide, FIG. 10) was 2.6.

In the case of “KKKKK KKKKK KKKKK K-UUU-GSGSP KKKRK VGSG [K16U3-NLS1]”, the “change” value ([4]; ExGen500, 24 h) is reported as “increase of transfection efficiency is less distinctive”.

With “KKKKK KKKKK KKKKK KGGGS (Ac-KKKKKKKKKKKKKKKKGGGS-NH2) [K16GGGS]” the “peptide amount needed to form a high molecular weight complex / total band shift” value [3] was “form a high molecular weight complex (i.e. no migration into the gel) at the same concentrations”.

“KKKKKKKKKKKKKKKKKKKKKKKKKGGGS (KKKKKKKKKKKKKKKKKKKKKKKKKGGGS; DNA-anchoring peptide) [K25GGGS]” was tested, and the “peptide amount needed to form a high molecular weight complex / total band shift” value [3] was “cause a total shift to decreased electrophoretic mobility at lower peptide amounts than K16GGGS and K16U3”.

“RKKRKRKKRKRKKRKRKKRKGGGS (Ac-RKKRKRKKRKRKKRKRKKRKGGGS-NH2) [RKK20GGGS]” was tested, and the “peptide amount needed to form a high molecular weight complex / total band shift” value [3] was “cause a total shift to decreased electrophoretic mobility at lower peptide amounts than K16GGGS and K16U3”.

“RKKRK RKKRK RKKRK RKKRK-PEG27- EEDTP PKKKR KVED [RKK20-PEG27-NLS2]” was tested, and the “peptide amount needed to form a high molecular weight complex / total band shift” value [3] was “behaves similarly”, the “increase in transfection efficiency, factor” value ([4]; ExGen500, 24 h, FIG. 7, comparator not stated) was 1.2 and the “increase in transfection efficiency, factor” value [6] was 1.5. The “maximum increase in transfection efficiency, factor” value ([5]; compared to peptide RKK20 without NLS, 200 pmol resp., FIG. 11) was 2.8.

In the case of “RKKRK RKKRK RKKRK RKKRK-UUU-EEDTP PKKKR KVED [RKK20U3-NLS2]”, the “peptide amount needed to form a high molecular weight complex / total band shift” value [3] is reported as “seems to increase the peptide amount necessary for a total band shift”, the “increase in transfection efficiency, factor” value ([4]; ExGen500, 24 h, compared to DNA transfected without any peptide or complexed with RKK20GGGS peptide without NLS, FIG. 6) is reported as 1.2 and the “peptide amount sufficient for increase in transfection efficiency (in words)” value ([4]; ExGen500, FIG. 5 versus FIG. 6) is reported as “lower amount of RKKU3-NLS2 than of K16U3-NLS2 is sufficient”. The “increase in transfection efficiency, factor” value [6] was 2.

“RKKRK RKKRK RKKRK RKKRK-UUU-GSGSP KKKRK VGSG [RKK20U3-NLS1]” was tested, and the “peptide amount needed to form a high molecular weight complex / total band shift” value [3] was “does not behave much differently to the RKK20GGGS peptide” and the “change” value ([4]; ExGen500, 24 h) was “increase is higher for the NLS2-peptide than for the NLS1-bearing peptide”.
